# Results published in publication PMC10762375 (Computational and Structural Biotechnology Journal, 2023).
# Residue numbers refer to the chain shown, from its start.
# How the values were obtained:
# rP2X3 WT = target: T1, rP2X3 WT (Rattus norvegicus, UniProt P49654); assay: Nystatin perforated patch recording of ATP-evoked currents, transfected HEK293 cells; format: cell-based; conditions: Hill 1 fit, mean ± s.e.m.
# T1 construct: EGFP (only implied by the anti-EGFP blot of rP2X3 plasmids); expressed in transfected cells; host or cells: HEK293
# T1 sequence (P49654 1-397): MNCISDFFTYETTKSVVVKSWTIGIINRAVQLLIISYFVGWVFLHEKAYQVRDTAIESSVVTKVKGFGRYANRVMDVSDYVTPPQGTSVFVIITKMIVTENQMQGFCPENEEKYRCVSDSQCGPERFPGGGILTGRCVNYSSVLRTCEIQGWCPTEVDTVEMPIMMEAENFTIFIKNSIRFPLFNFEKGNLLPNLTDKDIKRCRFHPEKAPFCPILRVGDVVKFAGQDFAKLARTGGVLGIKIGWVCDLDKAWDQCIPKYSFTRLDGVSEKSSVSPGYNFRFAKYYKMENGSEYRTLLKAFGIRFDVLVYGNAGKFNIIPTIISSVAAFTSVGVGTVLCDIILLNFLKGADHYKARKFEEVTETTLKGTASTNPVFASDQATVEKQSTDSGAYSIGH
# Description: As we described previously, [41], [42], human embryonic kidney (HEK 293) cells were purchased from Shanghai Institutes for Biological Sciences and cultured in Dulbecco's Modified Eagle Medium supplemented with 10% fetal bovine serum (FBS), 1% penicillin-streptomycin and 1% GlutaMAX™ at 37 °C, 5% CO2 and 95% air in a humidified environment. Plasmids were transfected into cells using transfection agents containing two solutions (Solution A: 250 mM CaCl2 in pure water; Solution B (in mM): 1.5 Na2HPO4, 140 NaCl and 50 HEPES, pH adjusted to 6.96). […]
# Nystatin (0.15 mg/mL) was diluted with a high potassium internal solution containing (in mM): 75 K2SO4, 55 KCl, 5 MgSO4, and 10 HEPES (pH 7.4). The ckP2X7 and rP2X2 receptor currents were recorded using conventional whole-cell patch configuration. At 24–48 h after transfection, HEK293 cells were recorded using an Axopatch 200B amplifier (Molecular Devices, USA) at room temperature (25 ± 2 °C), with holding a potential of − 60 mV. Current data were sampled at 10 kHz, filtered at 2 kHz, and analyzed using the PCLAMP 10 software (Molecular Devices, USA). […]
# All electrophysiological recordings were analyzed using Clampfit 10.6 (Molecular Devices). Pooled data were expressed as mean and standard error of the mean (s.e.m.). […]
# rP2X3 K201C/V274C = target: T2, rP2X3 K201C/V274C (Rattus norvegicus, UniProt P49654, K201C/V274C); assay: as above; format: cell-based; conditions: Hill 1 fit
# T2 construct: EGFP (only implied by the anti-EGFP blot of rP2X3 plasmids); expressed in transfected cells; host or cells: HEK293
# T2 sequence (P49654 1-397 K201C/V274C): T1 sequence (P49654 1-397) with K201C, V274C
# hP2X3 WT = target: T3, hP2X3 WT (Homo sapiens, UniProt P56373); assay: as above; format: cell-based; conditions: Hill 1 fit
# T3 construct: host or cells: HEK293
# T3 sequence (P56373 1-397): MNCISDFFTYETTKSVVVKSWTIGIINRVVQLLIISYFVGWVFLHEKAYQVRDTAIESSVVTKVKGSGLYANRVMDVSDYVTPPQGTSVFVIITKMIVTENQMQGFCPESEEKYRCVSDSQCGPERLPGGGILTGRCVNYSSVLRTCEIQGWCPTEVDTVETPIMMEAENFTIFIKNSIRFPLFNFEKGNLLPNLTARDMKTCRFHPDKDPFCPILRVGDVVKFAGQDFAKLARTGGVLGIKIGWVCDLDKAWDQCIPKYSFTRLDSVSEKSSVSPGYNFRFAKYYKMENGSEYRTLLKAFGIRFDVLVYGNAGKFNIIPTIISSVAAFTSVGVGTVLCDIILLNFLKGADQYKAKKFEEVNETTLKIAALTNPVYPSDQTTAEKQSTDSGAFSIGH
# rP2X2 V119W/H120W = target: T4, rP2X2 V119W/H120W (Rattus norvegicus, UniProt P49653, H120W/V119W); assay: Conventional whole-cell patch recording of ATP-evoked currents, transfected HEK293 cells; format: cell-based
# T4 construct: expressed in transfected cells; host or cells: HEK293
# T4 sequence (P49653 1-472 V119W/H120W): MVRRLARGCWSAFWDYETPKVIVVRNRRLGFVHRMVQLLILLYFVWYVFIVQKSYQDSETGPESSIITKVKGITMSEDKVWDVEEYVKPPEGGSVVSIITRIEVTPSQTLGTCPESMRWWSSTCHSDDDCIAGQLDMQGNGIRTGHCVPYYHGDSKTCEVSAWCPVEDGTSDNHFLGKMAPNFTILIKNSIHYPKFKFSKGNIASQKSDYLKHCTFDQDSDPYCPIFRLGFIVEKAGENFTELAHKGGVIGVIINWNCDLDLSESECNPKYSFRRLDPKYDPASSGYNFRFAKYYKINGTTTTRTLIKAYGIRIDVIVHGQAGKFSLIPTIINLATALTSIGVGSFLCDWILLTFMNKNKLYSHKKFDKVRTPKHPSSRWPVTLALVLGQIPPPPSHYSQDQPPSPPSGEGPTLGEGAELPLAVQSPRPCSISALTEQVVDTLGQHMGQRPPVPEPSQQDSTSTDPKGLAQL
# Description: (§1) As we described previously, [41], [42], human embryonic kidney (HEK 293) cells were purchased from Shanghai Institutes for Biological Sciences and cultured in Dulbecco's Modified Eagle Medium supplemented with 10% fetal bovine serum (FBS), 1% penicillin-streptomycin and 1% GlutaMAX™ at 37 °C, 5% CO2 and 95% air in a humidified environment. Plasmids were transfected into cells using transfection agents containing two solutions (Solution A: 250 mM CaCl2 in pure water; Solution B (in mM): 1.5 Na2HPO4, 140 NaCl and 50 HEPES, pH adjusted to 6.96). After mixing 2.5–3 μg of the plasmid and solution A, the mixture was added dropwise to an equal volume of solution B, followed by stirring with a pipette tip. The mixture was left to stabilize at room temperature for 3–5 min and then added to the cell culture dish. After 6 h of transfection, the medium in the culture dish was replaced with fresh medium.
# (§2) Nystatin (0.15 mg/mL) was diluted with a high potassium internal solution containing (in mM): 75 K2SO4, 55 KCl, 5 MgSO4, and 10 HEPES (pH 7.4). The ckP2X7 and rP2X2 receptor currents were recorded using conventional whole-cell patch configuration. At 24–48 h after transfection, HEK293 cells were recorded using an Axopatch 200B amplifier (Molecular Devices, USA) at room temperature (25 ± 2 °C), with holding a potential of − 60 mV. Current data were sampled at 10 kHz, filtered at 2 kHz, and analyzed using the PCLAMP 10 software (Molecular Devices, USA). HEK293 cells were bathed in standard extracellular solution (SS) containing (in mM): 150 NaCl, 5 KCl, 2 CaCl2, 1 MgCl2, 10 glucose, and 10 HEPES (pH 7.4, by Tris-base). For conventional whole-cell recordings, the pipette solution consisted of (in mM): 120 KCl, 30 NaCl, 0.5 CaCl2, 1 MgCl2, 5 EGTA, and 10 HEPES (pH 7.4, by Tris-base). ATP and drugs were dissolved in standard extracellular solution and administered with a Y-tube.
# (§3) All electrophysiological recordings were analyzed using Clampfit 10.6 (Molecular Devices). Pooled data were expressed as mean and standard error of the mean (s.e.m.). Comparisons between multiple independent groups were performed using one-way ANOVA followed by Dunnett's tests. Comparisons between two groups were made using paired (before and after engineered disulfide bond cross-linking) or unpaired Student’s t tests, as appropriate.
# rP2X2 WT = target: T5, rP2X2 WT (Rattus norvegicus, UniProt P49653); assay: as above; format: cell-based
# T5 construct: expressed in transfected cells; host or cells: HEK293
# T5 sequence (P49653 1-472): T4 sequence (P49653 1-472 V119W/H120W) with W119V, W120H
# Description: as §1, §2, §3
# rP2X2 K212A = target: T6, rP2X2 K212A (Rattus norvegicus, UniProt P49653, K212A); assay: as above; format: cell-based
# T6 construct: expressed in transfected cells; host or cells: HEK293
# T6 sequence (P49653 1-472 K212A): T4 sequence (P49653 1-472 V119W/H120W) with W119V, W120H, K212A
# Description: as §1, §2, §3
# hP2X3 R204A = target: T7, hP2X3 R204A (Homo sapiens, UniProt P56373, R204A); assay: Nystatin perforated patch recording of ATP-evoked currents, transfected HEK293 cells; format: cell-based
# T7 construct: expressed in transfected cells; host or cells: HEK293
# T7 sequence (P56373 1-397 R204A): T3 sequence (P56373 1-397) with R204A
# ckP2X7 T202W = format: cell-based, chicken
# hP2X3 K113A = target: T8, hP2X3 K113A (Homo sapiens, UniProt P56373, K113A); assay: Nystatin perforated patch recording of ATP-evoked currents, transfected HEK293 cells; format: cell-based
# T8 construct: expressed in transfected cells; host or cells: HEK293
# T8 sequence (P56373 1-397 K113A): T3 sequence (P56373 1-397) with K113A
# F 174 A mutant of hP2X3 = system: F 174 A mutant of hP2X3; parameters: method as in PMID 24223907; conditions: hP2X3 F174A; cited from earlier work
SMILES,EC50 (rP2X3 WT) [µM],EC50 (rP2X3 K201C/V274C) [µM],EC50 (hP2X3 WT) [µM],EC50 (rP2X2 V119W/H120W; rP2X2 V119W/H120W) [µM],EC50 (rP2X2 WT; rP2X2 WT) [µM],EC50 (rP2X2 K212A; rP2X2 K212A) [µM],EC50 (hP2X3 R204A) [µM],reduction in affinity to ATP vs WT (ckP2X7 T202W),EC50 (hP2X3 K113A) [µM],IC50 (rP2X2 V119W/H120W) [µM],reduction of sensitivity to TNP-ATP inhibition vs WT (rP2X2 V119W/H120W; rP2X2 V119W/H120W vs rP2X2 WT) [fold],IC50 (rP2X2 WT) [µM],IC50 (rP2X2 K212A) [µM],reduction of potency of inhibition by TNP-ATP vs WT (rP2X2 K212A; rP2X2 K212A vs rP2X2 WT) [fold],enhancement of apparent affinity of TNP-ATP vs WT (ckP2X7 T202W; 1 mM ATP),effect of mutation on inhibition by TNP-ATP (F 174 A mutant of hP2X3)
Nc1ncnc2c1ncn2[C@@H]1O[C@H](COP(=O)(O)OP(=O)(O)OP(=O)(O)O)[C@@H](O)[C@H]1O [ATP],0.832 ± 0.143,12.9 ± 2.7,0.767 ± 0.099,221 ± 36,5.39 ± 0.11,9.83 ± 0.34,1.22 ± 0.22,approximately 60 fold,0.872 ± 0.232,–,–,–,–,–,–,–
"Nc1ncnc2c1ncn2[C@@H]1O[C@H](COP(=O)(O)OP(=O)(O)OP(=O)(O)O)[C@H]2OC3(O[C@H]21)C([N+](=O)[O-])=CC(=[N+]([O-])[O-])C=C3[N+](=O)[O-] (stereo partly shown) [TNP-ATP, 2',3'-O-(2,4,6-trinitrophenyl)-ATP]",–,–,–,–,–,–,–,–,–,24.9 ± 5,~8,3.14 ± 0.95,15.8 ± 2,~5,about 38 fold,does not alter the inhibition
